Values after ≈ are worked out from the molar mass of the structure shown. Where only a bound is given, the exact number is not on record here.

Test systems include Candida albicans; Serratia marcescens; Escherichia coli; Pseudomonas putida; Saccharomyces cerevisiae; Lactococcus garvieae; Vibrio harveyi; Streptococcus iniae; Vibrio alginolyticus; Vibrio parahaemolyticus; Mammaliicoccus lentus; Micrococcus luteus; Bacillus megaterium Bm11; Candida tropicalis.
Holding throughout (test): ≥ marks a high value that may be exact or a test limit, other limits are often not marked, values filed in µg/mL are converted to µM
For assay [1], the system named is Escherichia coli DH5alpha.
Assay [2] deals with Klebsiella pneumoniae ATCC 10031.
Assay [3] concerns Pseudomonas aeruginosa ATCC 9027.
The test system of assay [4] is Staphylococcus epidermidis ATCC 12228.
For assay [5], the system named is Salmonella enterica subsp. enterica serovar Typhimurium ATCC 14028.
Assay [6] concerns Proteus mirabilis ATCC 25933.
Assay [7] deals with Bacillus subtilis KCTC 1021.
The subject of assay [8] is Micrococcus luteus ATCC 4698.
Assay [9] concerns Shigella dysenteriae ATCC 9752.
The subject of assay [10] is Yersinia enterocolitica BCRC 13999.
Assay [11] concerns Escherichia coli BCRC 10675.
Assay [12] concerns Vibrio parahaemolyticus BCRC 10806.
Assay [13] deals with Pseudomonas aeruginosa BCRC 10944.
For assay [14], the system named is Listeria monocytogenes BCRC 14845.
Assay [15] deals with Klebsiella aerogenes BCRC 10370.
Assay [16] deals with Streptococcus equinus BCRC 14729.
In assay [17] the test system is Staphylococcus aureus BCRC 10781.
The subject of assay [18] is Staphylococcus aureus BCRC 10780.
Assay [19] relates to Vibrio alginolyticus BCRC 12829.
The subject of assay [20] is Klebsiella oxytoca BCRC 13985.
Assay [21] deals with Vibrio anguillarum serotype O1.
Assay [22] concerns Staphylococcus xylosus BCRC 12930.
Assay [23] deals with Enterobacter cloacae BCRC 10401.
Assay [24] deals with Candida albicans ATCC 90028.
The subject of assay [25] is Staphylococcus aureus NCTC 8325.
For assay [26], the system named is Staphylococcus aureus T7/20.
Assay [27] concerns Escherichia coli ATCC 25922.
Assay [28] has as its system Staphylococcus epidermidis RP62A.
Assay [29] deals with Klebsiella pneumoniae KK3 9904.
The test system of assay [30] is Enterobacter cloacae HNTCC 53001.
Assay [31] concerns Pseudomonas aeruginosa ATCC 27853.
Assay [32] has as its system Enterococcus faecalis ATCC 29212.
Assay [33] relates to Phytophthora nicotianae PG344.

Broadly, the MIC is the least concentration at which growth counts as inhibited. Regarding `CC[C@H](C)[C@@H]1NC(=O)[C@H](CCCCN)NC(=O)[C@@H](NC(=O)[C@@H](NC(=O)[C@@H](NC(=O)[C@@H](NC(=O)[C@@H]2CCCN2C(=O)[C@H](CC(C)C)NC(=O)[C@H](Cc2ccccc2)NC(=O)[C@H](CC(N)=O)NC(=O)[C@H](C)NC(=O)[C@H](C)NC(=O)[C@H](CC(C)C)NC(=O)CNC(=O)[C@H](C)NC(=O)[C@H](CC(C)C)NC(=O)[C@H](CC(C)C)NC(=O)[C@@H]2CCCN2C(=O)[C@H](CC(C)C)NC(=O)[C@@H](N)Cc2ccccc2)[C@@H](C)O)[C@@H](C)CC)[C@@H](C)CC)CSSC[C@@H](C(=O)O)NC(=O)[C@H](CCCCN)NC(=O)[C@H](Cc2ccc(O)cc2)NC(=O)[C@H](CO)NC1=O` [FLPLLAGLAANFLPTIICKISYKC], the minimum inhibitory concentration (MIC) in assay [1] was 9.58 µM (≈ 25 µg/mL); in the assay with Candida albicans, 19.2 µM (≈ 50 µg/mL); in assay [2], 9.58 µM (≈ 25 µg/mL); in the assay on Serratia marcescens, at least 76.6 µM; in [3] it was 57.5 µM (≈ 150 µg/mL); in assay [4], 3.83 µM (≈ 9.99 µg/mL). Moreover, the minimum inhibitory concentration (MIC) with Escherichia coli is 38.3 µM (≈ 99.9 µg/mL); with Pseudomonas putida, at least 57.5 µM; in assay [5], 19.2 µM (≈ 50 µg/mL); in assay [6] it was at least 76.6 µM; in assay [7], 3.83 µM (≈ 9.99 µg/mL); in the assay on Saccharomyces cerevisiae it was 19.2 µM (≈ 50 µg/mL). The results for the minimal inhibitory concentration (MIC) in [8] and in [9] were 0.958 µM (≈ 2.5 µg/mL) and 19.2 µM (≈ 50 µg/mL), respectively.

For the molecule `CC[C@H](C)[C@H](NC(=O)[C@H](Cc1ccc(O)cc1)NC(=O)[C@H](CCCCN)NC(=O)[C@H](Cc1ccc(O)cc1)NC(=O)[C@H](Cc1ccccc1)NC(=O)[C@H](CC(N)=O)NC(=O)[C@H](Cc1ccc(O)cc1)NC(=O)[C@@H](NC(=O)[C@H](Cc1ccc(O)cc1)NC(=O)[C@H](CCCCN)NC(=O)[C@H](C)NC(=O)[C@H](Cc1ccc(O)cc1)NC(=O)[C@H](CCCCN)NC(=O)[C@H](C)NC(=O)CN)[C@@H](C)CC)C(=O)N[C@@H](C)C(=O)N[C@@H](CCCCN)C(=O)N[C@@H](Cc1ccc(O)cc1)C(=O)N[C@H](C(=O)N[C@@H](Cc1c[nH]c2ccccc12)C(=O)O)[C@@H](C)CC` [GAKYAKYIYNFYKYIAKYIW], the MIC in the assay on Lactococcus garvieae was at least 99.7 µM; in [10] it was at least 99.7 µM; against Vibrio harveyi, 24.9 µM (≈ 64 µg/mL); in assay [11] it was 24.9 µM (≈ 64 µg/mL); in assay [12], 24.9 µM (≈ 64 µg/mL); against Streptococcus iniae, at least 49.9 µM. The minimum inhibitory concentration (MIC) in the assay on Vibrio alginolyticus was 24.9 µM (≈ 64 µg/mL); in [13], 24.9 µM (≈ 64 µg/mL); in [14], at least 49.9 µM; in assay [15] it was 24.9 µM (≈ 64 µg/mL); in assay [16], at least 49.9 µM; in [17], at least 49.9 µM. Further, the MIC in assay [18] was at least 49.9 µM; in [19] it was 24.9 µM (≈ 64 µg/mL); in assay [20], at least 49.9 µM; in assay [21] it was at least 49.9 µM; in assay [22], 24.9 µM (≈ 64 µg/mL); in assay [23] it was 24.9 µM (≈ 64 µg/mL). In addition, in the assay on Vibrio parahaemolyticus, the MIC worked out at 24.9 µM (≈ 64 µg/mL).

As for `CC[C@H](C)[C@H](NC(=O)CN)C(=O)N[C@@H](CCSC)C(=O)N[C@@H](CO)C(=O)N[C@@H](CC(C)C)C(=O)N[C@@H](Cc1ccccc1)C(=O)N[C@@H](CCCCN)C(=O)NCC(=O)N[C@H](C(=O)N[C@@H](CC(C)C)C(=O)N[C@@H](CCCCN)C(=O)N[C@H](C(=O)N[C@@H](C)C(=O)NCC(=O)N[C@@H](CCCCN)C(=O)N[C@@H](Cc1cnc[nH]1)C(=O)N[C@H](C(=O)N[C@@H](C)C(=O)NCC(=O)N[C@@H](CO)C(=O)N[C@@H](CC(C)C)C(=O)N[C@H](C(=O)N[C@@H](CC(=O)O)C(=O)N[C@@H](CCC(N)=O)C(=O)N[C@@H](CC(C)C)C(=O)N[C@@H](CCCCN)C(=O)N[C@H]1CSSC[C@@H](C(=O)O)NC(=O)CNC(=O)CNC(=O)[C@H]([C@@H](C)O)NC(=O)[C@H]([C@@H](C)CC)NC(=O)[C@H](CCCCN)NC1=O)C(C)C)C(C)C)[C@@H](C)O)C(C)C` [GIMSLFKGVLKTAGKHVAGSLVDQLKCKITGGC], the minimal inhibitory concentration (MIC) is at least 100 µM in assay [24]; 12.5 µM (≈ 42 µg/mL) in [25]; 25 µM (≈ 84 µg/mL) in assay [26]; 3 µM (≈ 10.1 µg/mL) in [27]; 12.5 µM (≈ 42 µg/mL) in assay [28]; 6 µM (≈ 20.2 µg/mL) in assay [29]. For the same molecule, the MIC is 6 µM (≈ 20.2 µg/mL) in assay [30], 6 µM (≈ 20.2 µg/mL) in assay [31], 25 µM (≈ 84 µg/mL) in assay [32] and at least 100 µM in [6].

For `CC(C)C[C@H](N)C(=O)N[C@H](C(=O)N[C@@H](CCCN=C(N)N)C(=O)NCC(=O)N[C@H]1CSSC[C@@H](C(=O)N[C@@H](Cc2ccccc2)C(=O)N[C@H](C(=O)N[C@@H](CCCN=C(N)N)C(N)=O)C(C)C)NC(=O)[C@@H]2CCCN2C(=O)[C@H](CCCCN)NC(=O)[C@@H]2CCCN2C(=O)[C@@H]2CCCN2C(=O)[C@H](Cc2ccc(O)cc2)NC(=O)[C@H](CO)NC(=O)[C@H](CCCCN)NC(=O)[C@H]([C@@H](C)O)NC(=O)[C@H](Cc2c[nH]c3ccccc23)NC1=O)C(C)C` [LVRGCWTKSYPPKPCFVR], the minimum inhibitory concentration (MIC) was at least 50 µM against Mammaliicoccus lentus; at least 75 µM in assay [33]; 10 µM (≈ 21.3 µg/mL) against Micrococcus luteus; 20 µM (≈ 42.7 µg/mL) against Bacillus megaterium Bm11; 11 µM (≈ 23.5 µg/mL) in the assay with Candida tropicalis.

The values are drawn from DBAASP.
